Results reported in patent US6849602B1 (The Regents of the University of California, priority 1996, dated 2005).
“Also recorded” adds a separate entry of the source. No end group written: not given here.

Experiments:
[1] = tested on: Chung model rats; experiment: Tactile allodynia (von Frey, 50% paw withdrawal threshold) after bolus intrathecal injection in Chung model rats; format: in vivo, rat; details: for activity in alleviating neuropathic pain as assayed using Chung rats: summary statement
Procedure: Each of the three peptides were obtained in pure form by chemical synthesis, dissolved in sterile PBS and buffered to a neutral pH.
The surgical procedure previously described by Kim and Chung, supra (1992) was performed on male Sprague-Dawley rats weighing 120 to 150 grams to induce an allodynic state. Briefly, the rats were anesthetized with halothane; subsequently, the left L-5 and L-6 spinal nerves were isolated adjacent to the vertebral column and ligated with 6.0 silk suture distal to the dorsal root ganglion.
After a ten to fourteen day post operative recovery period, a spinal catheter was introduced. Five days following the second surgery, intrathecal drug administration was accomplished using a gear driven micro-injection syringe connected to a spinal catheter inserted through the foramen magnum. Prior to testing, the rats were placed in clear plastic wire meshed cages and allowed to acclimate.
To assess the 50% mechanical threshold for paw withdrawal, a von Frey hair was applied to the hind foot avoiding the foot pad. Each of the von Frey hairs, which are calibrated to bend at increasing log forces, were pressed perpendicularly to the foot with sufficient force to cause slight bending for a duration of approximately six to eight seconds. A positive response was noted if the foot was sharply withdrawn. Six data points were collected for each point with the maximum and minimum stimulus noted for each time point. The resulting pattern of the responses was tabulated, and the 50% response threshold was computed. The graph gives the response to the indicated dosage of peptide given as a single intrathecal bolus injection. The X-axis indicates the time after the injection at which point the hypersensitivity to pressure on the foot pad was measured.

[2] = tested on: neuroblastoma cells; experiment: Neurotrophic activity (neurite outgrowth, choline acetyltransferase, cell death); format: cell-based
[3] = tested on: normal male Sprague Dawley rats; experiment: Hot plate response latency in normal rats after intrathecal injection; format: in vivo, rat; details: hot plate 52.5° C., up to 180 minutes after intrathecal injection
Procedure: Briefly, the period of time before the rat withdraws the affected foot from a source of heat is defined as the hot plate latency and is a measure of tolerance to pain caused by a heat stimulus.
An intrathecal catheter was placed into normal male Sprague Dawley rats. […] Rats were examined on the hot plate (52.5° C.); hot plate response latencies were measured prior to injection and at various time points up to 180 minutes after the injection.

[4] = tested on: taxol-treated mice; experiment: Loss of thermal sensation (Hargreaves) in taxol-treated mice; format: in vivo, mouse
Procedure: Mice were administered taxol in order to induce sensory neuropathy.
The loss of thermal sensation was measured using a Hargreaves sensory testing apparatus as an indicator of sensory neuropathy.

[5] = tested on: neuroblastoma cells; details: O'Brien et al.; cited from earlier work

Q: What does the source list for CEFLVKEVTKLIDDNKTEKEIL [SEQ ID NO:8]?
A: allodynic response ([1]; injection of 17.5 μg): No change in the allodynic response; activity in alleviating neuropathic pain as assayed using Chung rats [1]: inactive in alleviating neuropathic pain; activity in alleviating neuropathic pain as assayed using Chung rats ([1]; listed as SEQ ID NO8): lacks activity in alleviating neuropathic pain; neurotrophic activity [2]: lacks neurotrophic activity

Q: With CEFLVKEVTKLIDNNKTEKEIL [SEQ ID NO:1] as the sequence, how does the “duration of effect following administration” value ([1]; FIG. 1) read?
A: The value was 3 h.

Q: What about the “latest time point with significantly reduced allodynia” value ([1]; highest dose, intrathecal) of the same sequence?
A: Its value is ≥ 180 min.

Q: And the “time after injection to significant effect” value ([1]; intrathecal bolus)?
A: The value was ≤ 15 min.

Q: What about the “time of maximum (peak) effect post-injection” value ([1]; intrathecal bolus) of the same sequence?
A: The value was 120 min.

Q: What about the “tactile allodynia (force threshold)” value ([1]; intrathecal injection of 0.007 μg) of the same sequence?
A: The value was “no significant reduction in allodynia”.

Q: And the “tactile allodynia (force threshold)” value ([1]; intrathecal injection of 0.7 or 0.07 μg)?
A: The value was “suppressed allodynia in a dose-dependent fashion”.

Q: And the “activity in alleviating neuropathic pain as assayed using Chung rats” value [1]?
A: The value was “reduces the painful allodynia; also recorded: alleviate neuropathic pain”.

Q: And the “hot plate response latency” value [3]?
A: Its value is “No significant elevation of the hot plate response latency”.

Q: And the “loss of thermal sensation” value ([4]; 100 μg/kg)?
A: The value was “the loss of thermal sensation was inhibited”.

Q: What about the “loss of thermal sensation” value ([4]; similarly assayed, dose not stated) of the same sequence?
A: Its value is “effective in inhibiting less of thermal sensation”.

Q: What about the neurotrophic activity [2] of the same sequence?
A: Its neurotrophic activity is “have neurotrophic activity”.

Q: And the “cell death in neuroblastoma cells” value [5]?
A: Its value is “prevents cell death in neuroblastoma cells”.

Q: What about the choline acetyltransferase activity [5] of the same sequence?
A: The choline acetyltransferase activity was “stimulates”.

Q: And the neurite outgrowth [5]?
A: Its neurite outgrowth is “stimulates neurite outgrowth”.

Q: With LIDNNKTEKEIL [SEQ ID NO:3] as the sequence, how does the neurotrophic activity [2] read?
A: The neurotrophic activity was “active as a neurotrophic factor”.

Q: With “TKLIDNDKTEKEIL [SEQ ID NO:9, substitution of the second conserved asparagine residue]” as the sequence, how does the neurotrophic activity [2] read?
A: The neurotrophic activity was “lacks neurotrophic activity”.

Q: Which neurotrophic activity [2] does the source give for “TKSIDNNKTEKEIL [SEQ ID NO:10, substitution of the conserved leucine residue]” here?
A: Its neurotrophic activity is “lacks neurotrophic activity”.
